Measured values published in publication PMC3256212, “Mechanism and Function of Drosophila capa GPCR: A Desiccation Stress-Responsive Receptor with Functional Homology to Human NeuromedinU Receptor” (PLoS ONE, 2012).
Peptide text beside a SMILES is read from it.

Target: T1, capaR (CG14575) (Drosophila melanogaster, UniProt Q8ITC7)
T1 construct: The ORF of capaR was amplified from whole fly cDNA as template; expressed in transfected cells; host or cells: Drosophila S2 cells (pMT/V5-His TOPO, CuSO4 induction)
T1 sequence (Q8ITC7 1-477): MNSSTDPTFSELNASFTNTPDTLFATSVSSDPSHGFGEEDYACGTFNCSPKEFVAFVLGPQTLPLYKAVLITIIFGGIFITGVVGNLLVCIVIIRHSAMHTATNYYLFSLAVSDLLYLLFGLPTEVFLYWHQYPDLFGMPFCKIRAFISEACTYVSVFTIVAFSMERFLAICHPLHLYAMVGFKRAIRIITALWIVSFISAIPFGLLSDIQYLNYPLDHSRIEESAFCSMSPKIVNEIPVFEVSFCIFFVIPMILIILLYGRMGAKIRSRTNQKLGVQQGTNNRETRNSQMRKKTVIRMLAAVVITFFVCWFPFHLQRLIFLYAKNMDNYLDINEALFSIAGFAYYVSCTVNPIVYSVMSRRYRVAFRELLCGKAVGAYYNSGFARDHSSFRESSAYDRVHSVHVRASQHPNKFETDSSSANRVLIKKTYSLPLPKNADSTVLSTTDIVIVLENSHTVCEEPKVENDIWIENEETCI
Test: [Ca2+]i (aequorin) in capaR-transfected S2 cells
Assay type: cell-based
Conditions: capaR S2 cells; N = 3 (Fig. 3D); read-out: EC50, [Ca2+]i via capaR
Description: The ORF of capaR was amplified from whole fly cDNA as template using the primers 5′-[…]-3′ and 5′-[…]-3′ and cloned into pMT/V5-His TOPO vector (Invitrogen). The eYFP ORF was fused in-frame at the C-terminus of the capaR using KpnI and ApaI sites and the tagged construct was cloned into the pMT/V5-His TOPO vector.
The capa peptides Drm-capa-1 (GANMGLYAFPRVamide), Drm-capa-2 (ASGLVAFPRVamide), Drm-PK-1 (TGPSASSGLWFGPRLamide), Drm-PK-2 (SVPFKPRLamide) and hugin gamma (hugg, pQLQSNGEPAYRVRTPRL-amide) were synthesised as C-terminally amidated peptides (Biomatik Corporation, Canada). Peptides were dissolved in distilled ACN/H2O to a concentration of 1 mM and then diluted to the required working concentration in Schneider's medium (Invitrogen Inc.). Human neuromedin U-25 was purchased from Sigma. Rabbit polyclonal antibody to porcine neuromedinU-8 was purchased from Progen biotechnik (Heidelberg, Germany). Rabbit capa precursor peptide used was described in [21] Rabbit anti-peptide antibody was raised against the capaR epitope (CQQGTNNRETRNSQM) by Genosphere Biotechnologies (Paris, France) and purified on a HiTrap NHS-activated HP column (Amersham Pharmacia Bio-tech; Buckinghamshire, UK) according to the manufacturer's instructions. Immunohistochemistry was carried out as described previously. Mouse anti-GFP primary antibody (Zymed) and the antiserum to neuromedinU-8 were all diluted 1∶1000 or, in the case of the pre-immune serum, the affinity-purified capaR antibody and the antiserum to the capa precursor peptide, 1∶500. Incubations in the primary antibodies were performed overnight. A FITC-conjugated affinity-purified goat anti-mouse antibody (Jackson Immunologicals) was used in a dilution of 1∶1,000 for visualization of the mouse monoclonal anti-GFP. A Texas red-conjugated affinity-purified goat anti-rabbit antibody (Jackson Immunologicals) was used at a dilution of 1∶1,000 for visualization of the rabbit capaR antiserum.
Drosophila S2 cells, cultured under standard conditions were transiently transfected with the apoaequorin ORF [21] and a receptor ORF construct, and expression induced using CuSO4. Transfected S2 cells were harvested and incubated with 2.5 µM coelenterazine in the dark at RT for 1–2 h as previously described. 25,000 cells were then placed in 135 µl Schneider's medium supplemented with 10% FCS in a well of a white polystyrene 96-well plate (Berthold Technologies). Bioluminescence recordings were carried out using a Mithras LB940 automated 96-well plate reader (Berthold Technologies) and MikroWin software. 15 µl of each of different peptides were applied to final concentrations as required. At the end of each recording samples were disrupted by the addition of 100 µl lysis solution, and the [Ca^2+] concentrations calculated as previously described. For assays in Ca^2+-free medium, transfected cells were collected and pelleted after incubation with coelenterazine. Cell pellets were re-suspended in Ca^2+-free Schneider's medium (Invitrogen Inc.) without FCS and collected by centrifugation. The washing and pelleting procedure was repeated once more. Experiments were then carried out on 25,000 cells per sample as above. To verify whether the observed calcium signal was linked to phospholipase C (PLC) activation, S2-capaR cells were preincubated with the PLC inhibitor U73122 at concentration of 10^−3 M to 10^−8 M for 10 min. Luminometry experiments were carried out on live, intact tubules expressing a targeted transgene for cytosolic-targeted apoaequorin in either principal or stellate cells as previously described, [22]. For in vivo tubule experiments, flies of the following genotypes were used: c42aeq, capaR-GAL4, UAS-capaR, UAS-capaR RNAi, UAS-NMUR 2 and the resulting progeny from GAL4>UAS crosses.

## CC(C)C[C@H](NC(=O)[C@H](Cc1ccccc1)NC(=O)[C@H](Cc1ccc(O)cc1)NC(=O)CNC(=O)[C@H](CCCNC(=N)N)NC(=O)[C@H](CO)NC(=O)[C@H](CCC(N)=O)NC(=O)[C@H](CO)NC(=O)[C@H](C)NC(=O)[C@H](Cc1ccccc1)NC(=O)[C@@H]1CCCN1C(=O)[C@H](CO)NC(=O)[C@H](CCC(N)=O)NC(=O)[C@H](Cc1ccccc1)NC(=O)[C@H](CCC(=O)O)NC(=O)[C@H](CCC(=O)O)NC(=O)[C@H](CC(=O)O)NC(=O)[C@@H](NC(=O)[C@H](CCCNC(=N)N)NC(=O)[C@@H](N)Cc1ccccc1)C(C)C)C(=O)N[C@@H](Cc1ccccc1)C(=O)N[C@@H](CCCNC(=N)N)C(=O)N1CCC[C@H]1C(=O)N[C@@H](CCCNC(=N)N)C(=O)N[C@@H](CC(N)=O)C(N)=O [NMU-25, reference compound] (H-FRVDEEFQSPFASQSRGYFLFRPRN-NH2)
  EC50: 21.8 nM
